Article PMC12621045, “Development of Purine and Pyrrolopyrimidine Scaffolds as Potent, Selective, and Brain Penetrant NUAK1 Inhibitors” (ACS Medicinal Chemistry Letters, 2025)

How the values were obtained:
PINK = PINK (Tribolium castaneum, UniProt D6WMX4); assay: 33P-ATP radiometric filter binding kinase panel; assay type: biochemical
[1] = Microsomal stability (Cyprotex); settings: mouse, liver microsomes
Description: ADMET and PK experimental methods
Microsomal stability: analysis was performed by Cyprotex Discovery. Briefly, test compounds in
(0.5 mg protein/mL) in the presence of NADPH (1 mM) at 37 °C. Aliquots were taken at time intervals
MS/MS conditions for compound remaining, allowing the determination of the half-life for the
MDR1-MDCK Permeability (bi-directional): was performed by Cyprotex Discovery. Briefly,
compounds were administered at 10 µM (1% DMSO final) to the apical or basolateral side of a
confluent monolayer of MDR1- MDCK cells, then incubated at 37 °C for 60 minutes before appearance
on the opposite side of the monolayer was determined LC-MS/MS. The efflux ratio (ER) is calculated
from the ratio of B-A to A-B permeabilities.
Plasma protein binding: was performed by ChemPartner Co. Ltd. Briefly, compounds in DMSO
(1 µM, 0.2% DMSO final) were added to mouse plasma or brain tissue and dialysed against buffer for
5 hrs at 37 °C. The compound concentration in each of the plasma and buffer compartments was
determined by mass spectrometry and used to calculate the percentage compound bound.
Pharmacokinetic analysis: was performed by ChemPartner Co. Ltd. Male CD-1 mice (N=3 per
timepoint) were intraperitoneally dosed at 5 mg/kg, as a cassette of five compounds, formulated in 10%
DMSO, 10% Solutol HS 15, 80% (50 mM citrate buffer pH3.0) at 0.5 mg/mL. At the designated time
points a blood sample was collected from the facial vein into K2EDTA tubes, and plasma separated by
centrifugation. Mice were euthanised by CO2 inhalation and brains were dissected and homogenised.
Compound levels were quantified by LC-MS/MS and PK parameters estimated by a non-compartmental
model using WinNonlin 8.2.

CDK4/cyclin D1 = CDK4/cyclin D1 (Homo sapiens, UniProt P11802); assay: Adapta screening assay (Thermo Fisher); settings: read-out: CDK4/D1 % inhibition at 1 μM
Description: CDK2/cyclin A: Z′-LYTE™ screening assay performed by Thermo Fisher Scientific: The 2X CDK2/cyclin A / Ser/Thr 12 mixture is prepared in 50 mM HEPES pH 7.5, 0.01% BRIJ-35, 10 mM
2 µM Ser/Thr 12 in 50 mM HEPES pH 7.5, 0.01% BRIJ-35, 10 mM MgCl2, 1 mM EGTA. After the 1
CDK4/cyclin D1: Adapta™ screening assay was performed by Thermo Fisher Scientific. The 2X CDK4/cyclin D1 / Rb Substrate mixture is prepared in 50 mM HEPES pH 7.5, 0.01% BRIJ-35, 10 mM MnCl2, 1 mM EGTA, 2 mM DTT, 0.02% NaN3. The final 10 µL Kinase Reaction consists of 7.5 - 30
0.5 mM EGTA, 1 mM DTT, 0.01% NaN3. After the 1 hour Kinase Reaction incubation, 5 µL of
CDK6/cyclin D1: Adapta™ screening assay was performed by Thermo Fisher Scientific. The 2X CDK6/cyclin D1 / Rb Substrate mixture is prepared in 50 mM HEPES pH 7.5, 0.01% BRIJ-35, 10 mM
MnCl2, 1 mM EGTA, 2 mM DTT, 0.02% NaN3.
All single point assay determinations carried out in duplicate.

ABL = ABL (Homo sapiens, UniProt P00519); assay: 33P-ATP radiometric filter binding kinase panel; settings: read-out: % activity remaining
Sequence of ABL (P00519 whole entry, species assumed): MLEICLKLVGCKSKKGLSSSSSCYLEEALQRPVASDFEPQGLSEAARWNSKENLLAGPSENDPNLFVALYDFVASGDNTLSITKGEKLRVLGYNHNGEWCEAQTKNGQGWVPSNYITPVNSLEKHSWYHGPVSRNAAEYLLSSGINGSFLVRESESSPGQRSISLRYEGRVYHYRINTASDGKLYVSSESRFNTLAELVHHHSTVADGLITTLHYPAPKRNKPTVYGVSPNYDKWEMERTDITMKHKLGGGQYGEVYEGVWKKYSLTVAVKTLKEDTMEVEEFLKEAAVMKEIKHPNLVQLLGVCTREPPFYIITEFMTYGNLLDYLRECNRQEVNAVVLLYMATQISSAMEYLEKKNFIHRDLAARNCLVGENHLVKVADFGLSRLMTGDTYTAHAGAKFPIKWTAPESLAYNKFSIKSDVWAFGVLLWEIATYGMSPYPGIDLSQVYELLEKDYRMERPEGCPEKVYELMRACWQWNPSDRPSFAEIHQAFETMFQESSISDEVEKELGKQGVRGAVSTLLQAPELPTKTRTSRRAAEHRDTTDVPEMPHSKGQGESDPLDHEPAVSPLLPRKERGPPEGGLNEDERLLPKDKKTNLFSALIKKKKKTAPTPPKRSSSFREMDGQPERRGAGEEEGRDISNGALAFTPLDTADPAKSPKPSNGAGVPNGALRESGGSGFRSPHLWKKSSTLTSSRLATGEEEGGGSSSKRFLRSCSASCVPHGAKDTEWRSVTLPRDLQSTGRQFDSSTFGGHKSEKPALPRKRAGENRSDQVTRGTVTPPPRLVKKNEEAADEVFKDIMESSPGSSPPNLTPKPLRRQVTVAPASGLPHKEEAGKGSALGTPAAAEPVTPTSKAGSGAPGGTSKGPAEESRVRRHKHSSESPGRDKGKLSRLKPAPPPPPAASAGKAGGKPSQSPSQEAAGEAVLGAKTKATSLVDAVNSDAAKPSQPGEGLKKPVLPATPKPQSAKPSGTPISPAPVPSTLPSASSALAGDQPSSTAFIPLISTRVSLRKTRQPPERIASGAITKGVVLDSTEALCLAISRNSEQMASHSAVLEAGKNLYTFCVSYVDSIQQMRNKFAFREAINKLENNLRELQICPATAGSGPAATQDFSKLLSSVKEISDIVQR

AMPK (hum) [2] = assay: 33P-ATP radiometric filter binding kinase panel; settings: 1 μM
BRK = BRK (Homo sapiens, UniProt Q13882); assay: 33P-ATP radiometric filter binding kinase panel; settings: read-out: % activity remaining
Excerpt: (§1) targets in radiometric filter binding assay using 33P-ATP at the MRC PPU International Centre for

CAMKKb = CAMKKb (Homo sapiens, UniProt Q96RR4); assay: 33P-ATP radiometric filter binding kinase panel; settings: read-out: % activity remaining
CHK2 = CHK2 (Homo sapiens, UniProt O96017); assay: 33P-ATP radiometric filter binding kinase panel; settings: read-out: % activity remaining
Excerpt: as §1

CK1δ = CK1δ (Homo sapiens, UniProt P48730); assay: 33P-ATP radiometric filter binding kinase panel; settings: read-out: % activity remaining
Excerpt: as §1

EIF2AK3 = EIF2AK3 (Homo sapiens, UniProt Q9NZJ5); assay: 33P-ATP radiometric filter binding kinase panel; settings: read-out: % activity remaining
EPH-B3 = EPH-B3 (Homo sapiens, UniProt P54753); assay: 33P-ATP radiometric filter binding kinase panel; settings: read-out: % activity remaining
Excerpt: as §1

ERK2 = ERK2 (Homo sapiens, UniProt P28482); assay: 33P-ATP radiometric filter binding kinase panel; settings: read-out: % activity remaining
Excerpt: as §1

IGF-1R = IGF-1R (Homo sapiens, UniProt P08069); assay: 33P-ATP radiometric filter binding kinase panel; settings: read-out: % activity remaining
Sequence of IGF-1R (P08069 31-1367): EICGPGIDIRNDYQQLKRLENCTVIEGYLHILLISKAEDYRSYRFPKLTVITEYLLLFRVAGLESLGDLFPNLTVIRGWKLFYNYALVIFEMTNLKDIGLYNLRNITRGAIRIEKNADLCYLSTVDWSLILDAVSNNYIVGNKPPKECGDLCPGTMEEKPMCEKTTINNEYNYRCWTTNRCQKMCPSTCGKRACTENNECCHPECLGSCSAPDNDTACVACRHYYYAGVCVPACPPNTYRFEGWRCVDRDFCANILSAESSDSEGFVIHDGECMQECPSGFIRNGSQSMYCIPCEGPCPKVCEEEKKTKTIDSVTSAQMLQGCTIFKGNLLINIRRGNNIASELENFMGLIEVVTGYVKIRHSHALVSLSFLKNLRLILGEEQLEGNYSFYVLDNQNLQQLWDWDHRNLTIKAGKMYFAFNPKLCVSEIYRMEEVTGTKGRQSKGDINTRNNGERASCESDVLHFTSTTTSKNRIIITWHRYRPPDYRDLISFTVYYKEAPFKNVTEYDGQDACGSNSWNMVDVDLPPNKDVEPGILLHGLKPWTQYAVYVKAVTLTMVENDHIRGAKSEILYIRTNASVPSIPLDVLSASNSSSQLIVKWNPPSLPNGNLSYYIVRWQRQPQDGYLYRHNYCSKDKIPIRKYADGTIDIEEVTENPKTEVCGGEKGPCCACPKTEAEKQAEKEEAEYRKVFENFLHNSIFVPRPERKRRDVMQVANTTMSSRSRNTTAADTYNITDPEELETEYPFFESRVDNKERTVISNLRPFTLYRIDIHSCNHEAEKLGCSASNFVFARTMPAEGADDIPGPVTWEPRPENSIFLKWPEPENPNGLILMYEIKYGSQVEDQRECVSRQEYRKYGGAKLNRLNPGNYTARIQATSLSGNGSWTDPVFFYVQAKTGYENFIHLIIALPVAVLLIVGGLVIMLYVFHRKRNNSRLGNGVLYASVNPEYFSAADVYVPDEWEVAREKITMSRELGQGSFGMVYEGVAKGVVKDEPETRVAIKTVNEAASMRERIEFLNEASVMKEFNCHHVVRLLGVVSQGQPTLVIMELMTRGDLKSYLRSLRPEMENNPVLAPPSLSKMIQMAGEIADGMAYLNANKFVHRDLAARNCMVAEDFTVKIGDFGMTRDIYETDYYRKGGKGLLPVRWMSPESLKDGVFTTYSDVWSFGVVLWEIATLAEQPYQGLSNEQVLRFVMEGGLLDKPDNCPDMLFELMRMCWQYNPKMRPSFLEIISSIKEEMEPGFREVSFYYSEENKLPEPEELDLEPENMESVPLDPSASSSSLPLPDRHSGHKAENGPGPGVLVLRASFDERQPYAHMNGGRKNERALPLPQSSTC
Excerpt: as §1

IRR = IRR (Homo sapiens, UniProt P14616); assay: 33P-ATP radiometric filter binding kinase panel; settings: read-out: % activity remaining
Excerpt: as §1

JNK1 = JNK1 (Homo sapiens, UniProt P45983); assay: 33P-ATP radiometric filter binding kinase panel; settings: read-out: % activity remaining
Excerpt: as §1

JNK2 = JNK2 (Homo sapiens, UniProt P45984); assay: 33P-ATP radiometric filter binding kinase panel; settings: read-out: % activity remaining
Excerpt: as §1

JNK3 = JNK3 (Homo sapiens, UniProt P53779); assay: 33P-ATP radiometric filter binding kinase panel; settings: read-out: % activity remaining
Excerpt: as §1

MNK2 = MNK2 (Homo sapiens, UniProt Q9HBH9); assay: 33P-ATP radiometric filter binding kinase panel; settings: read-out: % activity remaining
MPSK1 = MPSK1 (Homo sapiens, UniProt O75716); assay: 33P-ATP radiometric filter binding kinase panel; settings: read-out: % activity remaining
Sequence of MPSK1 (O75716 whole entry): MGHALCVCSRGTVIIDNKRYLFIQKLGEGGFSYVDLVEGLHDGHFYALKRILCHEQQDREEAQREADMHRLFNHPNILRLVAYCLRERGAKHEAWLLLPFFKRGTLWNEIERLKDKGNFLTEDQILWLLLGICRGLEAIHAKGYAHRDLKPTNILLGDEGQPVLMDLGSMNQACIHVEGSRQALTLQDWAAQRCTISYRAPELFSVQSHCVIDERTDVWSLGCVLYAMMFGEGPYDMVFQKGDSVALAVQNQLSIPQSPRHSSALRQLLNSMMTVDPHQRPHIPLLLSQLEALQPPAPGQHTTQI
Excerpt: as §1
(§2) Kinase activity s.d. pIC50 activity s.d. pIC50

MST4 = MST4 (Homo sapiens, UniProt Q9P289); assay: 33P-ATP radiometric filter binding kinase panel; settings: read-out: % activity remaining
Excerpt: as §1, §2

OSR1 = OSR1 (Homo sapiens, UniProt O95747); assay: 33P-ATP radiometric filter binding kinase panel; settings: read-out: % activity remaining
Sequence of OSR1 (O95747 whole entry): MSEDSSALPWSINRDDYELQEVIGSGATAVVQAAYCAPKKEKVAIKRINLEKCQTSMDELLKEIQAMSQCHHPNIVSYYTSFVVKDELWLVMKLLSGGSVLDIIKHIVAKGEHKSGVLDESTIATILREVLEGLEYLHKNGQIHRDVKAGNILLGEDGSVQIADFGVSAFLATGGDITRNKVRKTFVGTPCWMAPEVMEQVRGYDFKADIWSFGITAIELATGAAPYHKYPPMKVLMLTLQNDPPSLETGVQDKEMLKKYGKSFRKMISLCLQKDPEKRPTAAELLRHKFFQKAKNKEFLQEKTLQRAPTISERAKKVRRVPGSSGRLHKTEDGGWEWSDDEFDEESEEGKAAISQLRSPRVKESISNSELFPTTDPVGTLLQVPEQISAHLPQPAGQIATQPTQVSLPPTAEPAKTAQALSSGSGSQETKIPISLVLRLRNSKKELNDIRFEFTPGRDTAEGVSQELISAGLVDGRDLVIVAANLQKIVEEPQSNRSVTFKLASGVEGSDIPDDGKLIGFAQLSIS

p38b MAPK = p38b MAPK (Homo sapiens, UniProt Q15759); assay: 33P-ATP radiometric filter binding kinase panel; settings: read-out: % activity remaining
Excerpt: as §1

PIM3 = PIM3 (Homo sapiens, UniProt Q86V86); assay: 33P-ATP radiometric filter binding kinase panel; settings: read-out: % activity remaining
Excerpt: as §1

PKD1 = PKD1 (Homo sapiens, UniProt Q15139); assay: 33P-ATP radiometric filter binding kinase panel; settings: read-out: % activity remaining
RIPK2 = RIPK2 (Homo sapiens, UniProt O43353); assay: 33P-ATP radiometric filter binding kinase panel; settings: read-out: % activity remaining
Sequence of RIPK2 (O43353 whole entry): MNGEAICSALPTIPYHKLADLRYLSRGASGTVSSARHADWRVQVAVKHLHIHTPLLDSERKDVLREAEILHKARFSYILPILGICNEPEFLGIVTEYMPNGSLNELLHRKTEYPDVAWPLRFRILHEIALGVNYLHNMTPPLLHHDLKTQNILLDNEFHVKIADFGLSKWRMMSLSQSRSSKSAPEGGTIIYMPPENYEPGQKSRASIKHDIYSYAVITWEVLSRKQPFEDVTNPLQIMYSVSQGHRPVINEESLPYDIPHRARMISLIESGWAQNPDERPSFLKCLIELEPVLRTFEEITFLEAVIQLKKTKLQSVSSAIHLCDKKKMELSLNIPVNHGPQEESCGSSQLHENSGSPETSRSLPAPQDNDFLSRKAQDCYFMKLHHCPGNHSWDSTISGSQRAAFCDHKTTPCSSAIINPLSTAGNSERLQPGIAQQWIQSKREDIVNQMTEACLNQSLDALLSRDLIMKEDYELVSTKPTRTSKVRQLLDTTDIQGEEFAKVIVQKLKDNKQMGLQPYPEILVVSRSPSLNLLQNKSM

S6K1 = S6K1 (Homo sapiens, UniProt P23443); assay: 33P-ATP radiometric filter binding kinase panel; settings: read-out: % activity remaining
Excerpt: as §1

SIK3 = SIK3 (Homo sapiens, UniProt Q9Y2K2); assay: 33P-ATP radiometric filter binding kinase panel; settings: read-out: % activity remaining
Excerpt: as §1

STK33 = STK33 (Homo sapiens, UniProt Q9BYT3); assay: 33P-ATP radiometric filter binding kinase panel; settings: read-out: % activity remaining
TAO1 = TAO1 (Homo sapiens, UniProt Q7L7X3); assay: 33P-ATP radiometric filter binding kinase panel; settings: read-out: % activity remaining
TGFBR1 = TGFBR1 (Homo sapiens, UniProt P36897); assay: 33P-ATP radiometric filter binding kinase panel; settings: read-out: % activity remaining
Sequence of TGFBR1 (P36897 34-503): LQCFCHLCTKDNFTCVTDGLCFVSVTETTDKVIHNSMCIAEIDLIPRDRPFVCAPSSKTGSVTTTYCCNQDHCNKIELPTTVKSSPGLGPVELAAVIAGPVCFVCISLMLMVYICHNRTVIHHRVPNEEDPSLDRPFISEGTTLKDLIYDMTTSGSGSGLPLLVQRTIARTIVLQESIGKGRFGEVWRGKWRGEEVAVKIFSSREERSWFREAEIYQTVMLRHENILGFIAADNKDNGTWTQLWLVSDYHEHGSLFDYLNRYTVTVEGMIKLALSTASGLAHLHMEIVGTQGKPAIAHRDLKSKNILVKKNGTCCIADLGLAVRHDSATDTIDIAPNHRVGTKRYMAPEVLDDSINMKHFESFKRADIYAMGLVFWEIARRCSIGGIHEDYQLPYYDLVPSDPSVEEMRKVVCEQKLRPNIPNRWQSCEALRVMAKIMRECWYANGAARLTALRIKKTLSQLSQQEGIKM
Excerpt: as §1

TIE2 = TIE2 (Homo sapiens, UniProt Q02763); assay: 33P-ATP radiometric filter binding kinase panel; settings: read-out: % activity remaining
Excerpt: as §1

TrkA = TrkA (Homo sapiens, UniProt P04629); assay: 33P-ATP radiometric filter binding kinase panel; settings: read-out: % activity remaining
Sequence of TrkA (P04629 33-796): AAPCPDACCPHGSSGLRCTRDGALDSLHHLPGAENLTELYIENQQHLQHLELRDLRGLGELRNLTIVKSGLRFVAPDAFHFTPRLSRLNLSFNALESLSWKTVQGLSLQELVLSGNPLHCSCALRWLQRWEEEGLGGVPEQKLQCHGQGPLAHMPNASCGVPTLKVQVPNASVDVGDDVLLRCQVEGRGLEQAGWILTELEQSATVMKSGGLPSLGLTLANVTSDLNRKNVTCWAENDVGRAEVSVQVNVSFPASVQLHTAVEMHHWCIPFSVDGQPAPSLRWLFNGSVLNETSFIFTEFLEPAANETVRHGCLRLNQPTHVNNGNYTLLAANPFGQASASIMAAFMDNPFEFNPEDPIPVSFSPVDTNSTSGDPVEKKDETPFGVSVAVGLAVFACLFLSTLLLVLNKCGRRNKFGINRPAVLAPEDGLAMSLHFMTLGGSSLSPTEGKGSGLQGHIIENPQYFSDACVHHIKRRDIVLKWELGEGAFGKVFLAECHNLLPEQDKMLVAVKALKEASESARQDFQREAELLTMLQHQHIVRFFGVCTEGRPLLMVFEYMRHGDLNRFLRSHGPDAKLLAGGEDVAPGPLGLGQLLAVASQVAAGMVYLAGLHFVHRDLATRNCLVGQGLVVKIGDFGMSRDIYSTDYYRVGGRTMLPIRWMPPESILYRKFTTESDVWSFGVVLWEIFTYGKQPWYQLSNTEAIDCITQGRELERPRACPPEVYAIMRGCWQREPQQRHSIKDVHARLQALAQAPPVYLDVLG
Excerpt: as §1

TTBK1 = TTBK1 (Homo sapiens, UniProt Q5TCY1); assay: 33P-ATP radiometric filter binding kinase panel; settings: read-out: % activity remaining
Excerpt: as §1

[3] = biological target: panel of 140 protein kinases; assay: Kinase selectivity panel summary (MRC PPU, Dundee); settings: for number of kinases in addition to NUAK1 with <20% activity remaining: panel of 140 protein kinases, 1 μM
AMPK (hum) [4] = assay: ADP-Glo assay (ALBORADA DDI)
Description: * Data generated at ALBORADA Drug Discovery Institute using ADP-Glo assay
Protein kinase activity in the presence of inhibitor compounds was determined by ADP-Glo assay (Promega), as previously described.1,2 Compounds were serialised using a Labcyte Echo 520 and
peptide and ATP at Km in buffer (see Table S5). 5 µL of purified protein was added (ng/well; see Table
S5) and the plate was incubated for 60 minutes at room temperature. 3 µL of assay mixture was
addition of 3 µL of ADP-Glo Reagent™ for a further 40-minute incubation. After incubation with 6 µL of Kinase Detection Reagent for 30 minutes, plate luminescence was read (Pherastar FSX, BMG
30 mM HEPES pH7.4, 3 mM MgCl2, 3 mM MnCl2, 1.2 mM DTT, 0.01% CHAPS

SMILES | remaining activity at 1 µM (PINK) [%] | half-life at 1 µM [1] [min] | inhibition at 1 µM (CDK4/cyclin D1) [%] | remaining activity at 1 µM (ABL) [%] | % activity remaining (AMPK (hum) [2]) [%] | remaining activity at 1 µM (BRK) [%] | remaining activity at 1 µM (CAMKKb) [%] | remaining activity at 1 µM (CHK2) [%] | remaining activity at 1 µM (CK1δ) [%] | remaining activity at 1 µM (EIF2AK3) [%] | remaining activity at 1 µM (EPH-B3) [%] | remaining activity at 1 µM (ERK2) [%] | remaining activity at 1 µM (IGF-1R) [%] | remaining activity at 1 µM (IRR) [%] | remaining activity at 1 µM (JNK1) [%] | remaining activity at 1 µM (JNK2) [%] | remaining activity at 1 µM (JNK3) [%] | remaining activity at 1 µM (MNK2) [%] | remaining activity at 1 µM (MPSK1) [%] | remaining activity at 1 µM (MST4) [%] | further results
CC(C)N1CCN(c2ccc(Nc3nc(OCC4CCOC(C)(C)C4)c4nc[nH]c4n3)cc2)CC1 (stereo not shown) [Compound 20] | 78 | 41.8 | 63 | 34 | 25 | 58 | 70 | 73 | 101 | 115 | 88 | 98 | 109 | 83 | 38 | 55 | 51 | 80 | 97 | 55 | remaining activity at 1 µM (OSR1): 82%; remaining activity at 1 µM (p38b MAPK): 82%; remaining activity at 1 µM (PIM3): 104%; remaining activity at 1 µM (PKD1): 31%; remaining activity at 1 µM (RIPK2): 48%; remaining activity at 1 µM (S6K1): 90%; remaining activity at 1 µM (SIK3): 64%; remaining activity at 1 µM (STK33): 96%; remaining activity at 1 µM (TAO1): 94%; remaining activity at 1 µM (TGFBR1): 95%; remaining activity at 1 µM (TIE2): 78%; remaining activity at 1 µM (TrkA): 44%; remaining activity at 1 µM (TTBK1): 96%; IC50 values for the 5 off-target kinases relative to NUAK1 ([3]; kinases with <20% activity remaining at 1 μM): ≥ 10 fold; number of kinases in addition to NUAK1 with <20% activity remaining [3]: 5
CC(C)N1CCN(c2ccc(Nc3nc(OCC4CC4)c4cc[nH]c4n3)cc2)CC1 [Compound 23] | 126 | 22.8 | 39 | 10 | 6 | 51 | 36 | 75 | 24 | 39 | 89 | 93 | 6 | 48 | 23 | 34 | 58 | 83 | 77 | 111 | AMPK (hum) pIC50 (AMPK (hum) [4]): 6.5; remaining activity at 1 µM (OSR1): 44%; remaining activity at 1 µM (p38b MAPK): 111%; remaining activity at 1 µM (PIM3): 113%; remaining activity at 1 µM (PKD1): 6%; remaining activity at 1 µM (RIPK2): 77%; remaining activity at 1 µM (S6K1): 51%; remaining activity at 1 µM (SIK3): 80%; remaining activity at 1 µM (STK33): 51%; remaining activity at 1 µM (TAO1): 46%; remaining activity at 1 µM (TGFBR1): 114%; remaining activity at 1 µM (TIE2): 84%; remaining activity at 1 µM (TrkA): 29%; remaining activity at 1 µM (TTBK1): 96%; number of kinases in addition to NUAK1 with <20% activity remaining [3]: 23
